Measured values: US20260224588A1, “BENZODIAZEPINONE-DERIVED INHIBITORS OF EGFR AND HER2” (The Research Foundation for the State University of New York, priority 2023, published 2026)

Columns and labels:
Assay in all cases: KINOMEscan
Type in all cases: binding
Conditions in all cases: 1 μM of compound 4; read-out: POC
[1] = molecular target: T1, FES (Homo sapiens, UniProt P07332)
T1 construct: purchased Eurofins DiscoverX Corporation

[2] = molecular target: BTK (Homo sapiens, UniProt Q06187)
[3] = molecular target: T2, GSK3B (Homo sapiens, UniProt P49841)
T2 construct: purchased Eurofins DiscoverX Corporation

[4] = molecular target: MARK3 (Homo sapiens, UniProt P27448)
[5] = molecular target: T3, FLT4 (Homo sapiens, UniProt P35916)
T3 construct: purchased Eurofins DiscoverX Corporation

[6] = molecular target: T4, SBK1 (Homo sapiens, UniProt Q52WX2)
T4 construct: purchased Eurofins DiscoverX (KINOMEscan service)

[7] = molecular target: T5, TNK2 (Homo sapiens, UniProt Q07912)
T5 construct: purchased Eurofins DiscoverX Corporation

[8] = molecular target: T6, EPHB1 (Homo sapiens, UniProt P54762)
T6 construct: purchased Eurofins DiscoverX (KINOMEscan service)
T6 sequence (P54762 18-984): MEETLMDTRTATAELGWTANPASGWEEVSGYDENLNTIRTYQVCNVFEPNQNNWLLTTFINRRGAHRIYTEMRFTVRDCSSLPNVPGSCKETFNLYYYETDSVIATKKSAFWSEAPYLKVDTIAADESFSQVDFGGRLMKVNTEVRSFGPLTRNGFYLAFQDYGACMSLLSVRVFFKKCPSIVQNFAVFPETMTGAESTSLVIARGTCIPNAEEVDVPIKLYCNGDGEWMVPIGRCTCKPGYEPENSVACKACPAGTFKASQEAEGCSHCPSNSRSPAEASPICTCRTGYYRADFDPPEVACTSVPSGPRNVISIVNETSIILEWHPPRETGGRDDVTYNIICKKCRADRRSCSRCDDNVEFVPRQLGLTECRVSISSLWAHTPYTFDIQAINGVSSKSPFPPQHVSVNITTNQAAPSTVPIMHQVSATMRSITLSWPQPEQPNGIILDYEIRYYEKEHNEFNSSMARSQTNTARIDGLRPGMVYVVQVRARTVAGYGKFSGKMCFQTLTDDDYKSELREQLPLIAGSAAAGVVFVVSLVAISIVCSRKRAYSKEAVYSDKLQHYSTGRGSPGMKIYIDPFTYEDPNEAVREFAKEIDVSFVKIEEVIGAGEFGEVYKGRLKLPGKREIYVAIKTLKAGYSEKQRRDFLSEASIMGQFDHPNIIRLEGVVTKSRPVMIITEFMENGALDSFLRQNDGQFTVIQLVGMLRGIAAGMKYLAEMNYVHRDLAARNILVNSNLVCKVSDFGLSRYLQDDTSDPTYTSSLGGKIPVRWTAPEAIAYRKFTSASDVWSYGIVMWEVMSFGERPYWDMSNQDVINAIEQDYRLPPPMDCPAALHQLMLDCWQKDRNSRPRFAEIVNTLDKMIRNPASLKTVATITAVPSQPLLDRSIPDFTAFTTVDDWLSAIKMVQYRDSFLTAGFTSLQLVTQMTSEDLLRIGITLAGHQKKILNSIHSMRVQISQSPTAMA

[9] = molecular target: PRP4 (Homo sapiens, UniProt Q13523)
[10] = molecular target: AKT3 (Homo sapiens, UniProt Q9Y243)
Sequence of AKT3 (Q9Y243 whole entry): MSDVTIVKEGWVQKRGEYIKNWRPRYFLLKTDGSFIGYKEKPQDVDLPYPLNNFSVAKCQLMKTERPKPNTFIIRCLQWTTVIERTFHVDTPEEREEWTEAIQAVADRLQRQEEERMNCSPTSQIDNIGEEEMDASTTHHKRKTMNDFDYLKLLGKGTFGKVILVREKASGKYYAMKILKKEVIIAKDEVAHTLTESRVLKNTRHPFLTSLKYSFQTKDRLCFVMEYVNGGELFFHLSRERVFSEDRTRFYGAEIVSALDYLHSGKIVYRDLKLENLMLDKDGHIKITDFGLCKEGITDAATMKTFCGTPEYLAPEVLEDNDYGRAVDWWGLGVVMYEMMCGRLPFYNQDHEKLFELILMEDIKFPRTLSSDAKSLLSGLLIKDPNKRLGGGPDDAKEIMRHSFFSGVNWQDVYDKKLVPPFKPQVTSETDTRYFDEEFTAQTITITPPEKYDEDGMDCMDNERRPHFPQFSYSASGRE

[11] = molecular target: PIM2 (Homo sapiens, UniProt Q9P1W9)
Sequence of PIM2 (Q9P1W9 whole entry): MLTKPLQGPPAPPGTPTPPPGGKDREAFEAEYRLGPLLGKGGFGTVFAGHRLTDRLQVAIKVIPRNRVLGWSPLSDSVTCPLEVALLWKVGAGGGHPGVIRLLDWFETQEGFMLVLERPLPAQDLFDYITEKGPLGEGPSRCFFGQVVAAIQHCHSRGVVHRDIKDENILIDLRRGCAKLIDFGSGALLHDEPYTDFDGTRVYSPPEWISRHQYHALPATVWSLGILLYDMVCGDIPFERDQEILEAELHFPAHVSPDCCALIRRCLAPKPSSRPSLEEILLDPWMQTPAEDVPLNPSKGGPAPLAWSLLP

[12] = molecular target: CAMK2B (Homo sapiens, UniProt Q13554)
[13] = molecular target: ALK(C1156Y) (Homo sapiens, UniProt Q9UM73, C1156Y)
Sequence of ALK(C1156Y) (Q9UM73 19-1620 C1156Y): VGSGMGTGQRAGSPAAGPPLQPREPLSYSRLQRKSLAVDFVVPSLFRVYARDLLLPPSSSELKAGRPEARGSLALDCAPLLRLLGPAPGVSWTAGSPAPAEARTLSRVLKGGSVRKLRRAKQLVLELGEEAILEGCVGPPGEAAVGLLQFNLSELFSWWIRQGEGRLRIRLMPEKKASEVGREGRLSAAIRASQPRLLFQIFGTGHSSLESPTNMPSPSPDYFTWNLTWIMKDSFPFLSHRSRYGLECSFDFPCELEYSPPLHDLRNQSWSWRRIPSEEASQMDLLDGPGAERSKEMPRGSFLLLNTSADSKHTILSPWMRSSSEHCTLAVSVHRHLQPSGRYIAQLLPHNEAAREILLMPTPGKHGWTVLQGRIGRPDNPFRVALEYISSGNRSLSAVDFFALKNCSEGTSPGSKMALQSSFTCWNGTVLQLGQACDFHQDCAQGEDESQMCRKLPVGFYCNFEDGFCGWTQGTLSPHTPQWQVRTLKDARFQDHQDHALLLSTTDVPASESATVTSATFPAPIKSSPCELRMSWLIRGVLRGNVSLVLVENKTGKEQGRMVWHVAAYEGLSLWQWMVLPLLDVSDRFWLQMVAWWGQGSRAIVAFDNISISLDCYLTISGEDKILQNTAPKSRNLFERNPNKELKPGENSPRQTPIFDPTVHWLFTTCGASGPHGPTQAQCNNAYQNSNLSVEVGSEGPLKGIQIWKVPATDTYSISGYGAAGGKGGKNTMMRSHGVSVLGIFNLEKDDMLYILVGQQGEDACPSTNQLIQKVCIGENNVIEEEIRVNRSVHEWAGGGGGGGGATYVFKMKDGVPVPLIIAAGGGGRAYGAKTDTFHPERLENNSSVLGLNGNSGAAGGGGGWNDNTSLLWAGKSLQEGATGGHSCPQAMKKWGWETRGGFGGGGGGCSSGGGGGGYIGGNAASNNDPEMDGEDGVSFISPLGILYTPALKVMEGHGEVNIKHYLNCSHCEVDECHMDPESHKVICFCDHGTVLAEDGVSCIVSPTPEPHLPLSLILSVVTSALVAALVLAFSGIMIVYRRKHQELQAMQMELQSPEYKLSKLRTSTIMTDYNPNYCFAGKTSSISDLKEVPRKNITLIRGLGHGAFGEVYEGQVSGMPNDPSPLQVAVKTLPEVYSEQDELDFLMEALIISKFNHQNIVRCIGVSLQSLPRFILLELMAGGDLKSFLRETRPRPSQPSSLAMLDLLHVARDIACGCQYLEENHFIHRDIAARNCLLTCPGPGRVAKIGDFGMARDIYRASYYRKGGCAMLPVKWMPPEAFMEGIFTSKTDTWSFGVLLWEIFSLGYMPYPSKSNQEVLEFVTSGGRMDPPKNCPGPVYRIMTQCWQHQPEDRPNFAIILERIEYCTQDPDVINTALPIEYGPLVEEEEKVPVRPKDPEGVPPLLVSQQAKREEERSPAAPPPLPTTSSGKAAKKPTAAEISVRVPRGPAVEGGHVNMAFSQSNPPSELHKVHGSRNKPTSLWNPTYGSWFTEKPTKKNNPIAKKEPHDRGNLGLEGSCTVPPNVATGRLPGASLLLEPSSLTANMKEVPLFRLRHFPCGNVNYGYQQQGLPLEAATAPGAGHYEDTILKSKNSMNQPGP

[14] = molecular target: BMX (Homo sapiens, UniProt P51813)
[15] = molecular target: MAK (Homo sapiens, UniProt P20794)
[16] = molecular target: T7, AAK1 (Homo sapiens, UniProt Q2M2I8)
T7 construct: purchased Eurofins DiscoverX Corporation

[17] = molecular target: MELK (Homo sapiens, UniProt Q14680)
[18] = molecular target: MARK2 (Homo sapiens, UniProt Q7KZI7)
[19] = molecular target: T8, PDGFRB (Homo sapiens, UniProt P09619)
T8 construct: purchased Eurofins DiscoverX Corporation (KINOMEscan)

[20] = molecular target: T9, ABL1(M351T)-phosphorylated (Homo sapiens, UniProt P00519, M351T)
T9 construct: purchased Eurofins DiscoverX Corporation

[21] = molecular target: LKB1 (Homo sapiens, UniProt Q15831)
[22] = molecular target: MET (Homo sapiens, UniProt P08581)
[23] = molecular target: BLK (Homo sapiens, UniProt P51451)
[24] = molecular target: JNK2 (Homo sapiens, UniProt P45984)
[25] = molecular target: T10, RIOK2 (Homo sapiens, UniProt Q9BVS4)
T10 construct: purchased Eurofins DiscoverX Corporation (KINOMEscan screening service)

[26] = molecular target: NEK11 (Homo sapiens, UniProt Q8NG66)
Sequence of NEK11 (Q8NG66 whole entry): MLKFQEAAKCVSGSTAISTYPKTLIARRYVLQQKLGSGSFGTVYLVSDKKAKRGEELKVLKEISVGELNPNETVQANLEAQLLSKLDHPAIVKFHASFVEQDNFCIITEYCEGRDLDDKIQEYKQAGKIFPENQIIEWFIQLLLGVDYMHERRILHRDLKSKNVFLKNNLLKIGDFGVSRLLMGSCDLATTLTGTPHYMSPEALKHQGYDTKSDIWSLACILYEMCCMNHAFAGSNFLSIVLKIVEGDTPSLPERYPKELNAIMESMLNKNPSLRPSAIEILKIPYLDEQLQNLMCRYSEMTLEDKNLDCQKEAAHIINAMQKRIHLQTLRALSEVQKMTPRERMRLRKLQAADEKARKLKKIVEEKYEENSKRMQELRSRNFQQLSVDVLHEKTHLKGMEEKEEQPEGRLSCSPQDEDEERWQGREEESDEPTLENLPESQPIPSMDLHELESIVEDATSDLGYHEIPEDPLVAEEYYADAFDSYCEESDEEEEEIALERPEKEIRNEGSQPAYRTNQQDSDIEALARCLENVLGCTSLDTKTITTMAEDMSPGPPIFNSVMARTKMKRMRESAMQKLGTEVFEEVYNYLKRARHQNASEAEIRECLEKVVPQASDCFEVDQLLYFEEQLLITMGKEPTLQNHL

[27] = molecular target: T11, ERK5 (Homo sapiens, UniProt Q13164)
T11 construct: purchased Eurofins DiscoverX Corporation

[28] = molecular target: T12, p38-gamma (Homo sapiens, UniProt P53778)
T12 construct: purchased Eurofins DiscoverX Corporation (KINOMEscan)

[29] = molecular target: T13, VRK2 (Homo sapiens, UniProt Q86Y07)
T13 construct: purchased Eurofins DiscoverX
T13 sequence (Q86Y07 whole entry): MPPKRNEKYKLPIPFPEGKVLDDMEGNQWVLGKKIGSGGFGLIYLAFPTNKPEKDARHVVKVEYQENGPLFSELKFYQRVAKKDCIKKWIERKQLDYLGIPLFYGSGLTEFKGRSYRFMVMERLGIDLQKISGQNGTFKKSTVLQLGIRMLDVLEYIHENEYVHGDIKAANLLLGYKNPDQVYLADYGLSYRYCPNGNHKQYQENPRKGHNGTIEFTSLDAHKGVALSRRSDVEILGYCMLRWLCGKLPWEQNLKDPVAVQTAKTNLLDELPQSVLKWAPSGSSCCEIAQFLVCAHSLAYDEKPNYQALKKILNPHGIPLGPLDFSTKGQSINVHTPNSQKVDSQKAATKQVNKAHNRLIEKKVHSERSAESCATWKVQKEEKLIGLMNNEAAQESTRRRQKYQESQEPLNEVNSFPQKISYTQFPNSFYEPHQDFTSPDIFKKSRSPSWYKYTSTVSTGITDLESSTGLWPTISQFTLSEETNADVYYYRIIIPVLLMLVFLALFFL

[30] = molecular target: T14, PDPK1 (Homo sapiens, UniProt O15530)
T14 construct: purchased Eurofins DiscoverX Corporation (KINOMEscan)

[31] = molecular target: T15, ULK2 (Homo sapiens, UniProt Q8IYT8)
T15 construct: purchased Eurofins DiscoverX

[32] = molecular target: MRCKA (Homo sapiens, UniProt Q5VT25)
[33] = molecular target: BRSK1 (Homo sapiens, UniProt Q8TDC3)
[34] = molecular target: KIT(D816H) (Homo sapiens, UniProt P10721, D816H)
[35] = molecular target: PIK3CD (Homo sapiens, UniProt O00329)
[36] = molecular target: PKMYT1 (Homo sapiens, UniProt Q99640)
[37] = molecular target: NEK3 (Homo sapiens, UniProt P51956)
Sequence of NEK3 (P51956 whole entry): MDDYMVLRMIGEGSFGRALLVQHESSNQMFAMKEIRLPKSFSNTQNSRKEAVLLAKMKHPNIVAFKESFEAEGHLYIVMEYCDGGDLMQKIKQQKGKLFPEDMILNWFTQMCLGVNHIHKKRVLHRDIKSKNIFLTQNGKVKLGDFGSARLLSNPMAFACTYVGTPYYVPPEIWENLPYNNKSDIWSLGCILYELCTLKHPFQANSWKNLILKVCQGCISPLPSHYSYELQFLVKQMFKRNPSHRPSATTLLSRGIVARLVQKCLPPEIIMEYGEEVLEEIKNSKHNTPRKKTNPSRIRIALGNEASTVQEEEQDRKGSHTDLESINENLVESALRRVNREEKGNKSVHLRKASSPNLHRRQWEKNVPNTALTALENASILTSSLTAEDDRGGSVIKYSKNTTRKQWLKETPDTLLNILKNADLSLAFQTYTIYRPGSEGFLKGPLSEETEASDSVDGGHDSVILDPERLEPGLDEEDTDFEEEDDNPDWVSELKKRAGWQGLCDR

[38] = molecular target: LRRK2(G2019S) (Homo sapiens, UniProt Q5S007, G2019S)
[39] = molecular target: CSNK1G2 (Homo sapiens, UniProt P78368)
[40] = molecular target: T16, NEK9 (Homo sapiens, UniProt Q8TD19)
T16 construct: purchased Eurofins DiscoverX Corporation (KINOMEscan)

Compound `C=CC(=O)Nc1ccc(OC)c(Nc2cc(-c3[nH]c(CC)nc3-c3cccc(NC(=O)c4cccc5c4NC(=O)c4ccccc4N5)c3)ccn2)c1` [Compound 4, N-(3-(5-(2-((5-Acrylamido-2-methoxyphenyl)amino)pyridin-4-yl)-2-ethyl-1H-imidazol-4-yl)phenyl)-11-oxo-10,11-dihydro-5H-dibenzo[b,e][1,4]diazepine-9-carboxamide] has a remaining binding at 1 µM [1] of 28%, a remaining binding at 1 µM [2] of 54% and a remaining binding at 1 µM [3] of 100%. For the same compound, the remaining binding at 1 µM [4] was 100%, the remaining binding at 1 µM [5] was 100% and the remaining binding at 1 µM [6] was 84%. The remaining binding at 1 µM [7] was 3.8%, the remaining binding at 1 µM [8] was 92% and the remaining binding at 1 µM [9] was 46%. It also gave a remaining binding at 1 µM [10] of 100%, a remaining binding at 1 µM [11] of 88% and a remaining binding at 1 µM [12] of 72%. For the same compound, the remaining binding at 1 µM [13] was 87%, the remaining binding at 1 µM [14] was 66% and the remaining binding at 1 µM [15] was 89%. For the same compound, the remaining binding at 1 µM [16] was 100%, the remaining binding at 1 µM [17] was 100% and the remaining binding at 1 µM [18] was 85%. The remaining binding at 1 µM [19] was 100%, the remaining binding at 1 µM [20] was 67% and the remaining binding at 1 µM [21] was 100%. The remaining binding at 1 µM [22] was 69%, the remaining binding at 1 µM [23] was 1.7% and the remaining binding at 1 µM [24] was 78%. For the same compound, the remaining binding at 1 µM [25] was 83%, the remaining binding at 1 µM [26] was 100% and the remaining binding at 1 µM [27] was 100%. The remaining binding at 1 µM [28] was 100%, the remaining binding at 1 µM [29] was 100% and the remaining binding at 1 µM [30] was 84%. The remaining binding at 1 µM [31] was 80%, the remaining binding at 1 µM [32] was 0% and the remaining binding at 1 µM [33] was 100%. The remaining binding at 1 µM [34] was 39%, the remaining binding at 1 µM [35] was 71% and the remaining binding at 1 µM [36] was 99%. It also gave a remaining binding at 1 µM [37] of 100%, a remaining binding at 1 µM [38] of 100% and a remaining binding at 1 µM [39] of 91%. It also gave a remaining binding at 1 µM [40] of 83%.
